Article PMC12032302, “A20 attenuates oxidized self-DNA-mediated inflammation in acute kidney injury” (Signal Transduction and Targeted Therapy, 2025)
Entries after “also recorded” stand apart in the source; their conditions may differ. Residues, ends and D or L forms follow the SMILES beside them.

Legend:
AKI mice = test: tubular injury / renal injury of AKI mice (HE histology); assay type: in vivo, mouse; details: Cis-treated mice; A20-derived peptide 15 mg/kg i.p., pretreated; n = 9
Experimental: LPS (Sigma, Cat#L2630) was dissolved in PBS to 2.5 mg/mL for one-time intraperitoneal 25 mg/kg injection; deoxyribonuclease I (DNase I, Sigma, Cat#SLBV1446) was dissolved in PBS to 1 mg/mL and injected intraperitoneally at a dose of 10 mg/kg at 4 h before cisplatin or AA I injection and every 24 h after injection. Disulfiram (MedChemExpress, CAS:97-77-8) was diluted in corn oil to 12.5 mg/mL and injected 50 mg/kg intraperitoneally every 24 h after cisplatin or AA I administration. Cu(II) (Sigma, Cat#344419) was dissolved in PBS to 30 µg/mL and administered intraperitoneally 6 h before disulfiram at a dose of 0.15 mg/kg; TNF-α (Peprotech, Cat#315-01 A) was dissolved in PBS to 10 µg/mL and injected at 100 µg/kg once through the caudal vein 24 h before cisplatin injection. […] MCC950 (MedChem Express, CAS:256373-96-3) was dissolved in PBS to 5 mg/mL and injected intraperitoneally at a dose of 50 mg/kg 12 h before cisplatin or AA I injection and every 12 h after injection; berberine (APExBIO, Cat#N1368) was dissolved in PBS to 5 mg/mL and 5 mg/kg injected intraperitoneally at 36, 24 and 12 h before cisplatin; […] To supervise the effects of various treatments on survival time and rate, the mice were observed, and survival curves were generated. To investigate the specific mechanisms, whole blood was retrieved from the orbit, serum was separated through centrifugation on the 4th day, and the mice were then sacrificed by cervical dislocation. Mice were randomly assigned in experiments, while there was no blinding during the animal experiments. Renal function was evaluated based on serum creatinine level and histological features. Serum creatinine was determined in the Clinical Pharmacology Lab, Clinical Trial Center, WCH, SCU. The kidneys were extracted from euthanized mice, immediately fixed with 4% paraformaldehyde, and embedded in paraffin. Furthermore, the samples were cut into 5 µm thick sections. These tissue samples were subjected to hematoxylin-eosin (HE) and […] according to standard protocols with HE reagent (Biosharp, Cat#BL702B, BL703B) and Masson reagent (Servicebio, Cat#G1006-100ML). The pathological changes were detected through optical microscopy, and the tubulointerstitial injury score was determined as previously reported.

NEK7 and NLRP3 complex = test: interaction of NEK7 and NLRP3 complex; assay type: binding
Experimental: Cells were lysed in mild lysis buffer with a protease inhibitor cocktail (Cell Signaling Technology, Cat#5872S) on ice for 10 min to perform the coimmunoprecipitation (co-IP) assay. Samples were then centrifuged at 12,000 rpm at 4 °C for 10 min, and the supernatant was incubated with the corresponding primary antibody (anti-HA, 1:100, Cell Signaling Technology, Cat#3724S) overnight at 4 °C. On the next day, magnetic beads were added and incubated for 1 h. The immunocoprecipitated protein was washed three times by MLB and then heated with 4× Laemmli loading buffer at 100 °C for 10 min. Samples were then subjected to western blot analysis.

[1] = tested on: HA-NEK7 Tri-MUT (K130, L132 and K140); test: biotin-P-II immunoprecipitation of HA-NEK7 Tri-MUT; assay type: binding, mouse; details: co-IP with biotin-labeled P-II, HEK293T lysates, overnight 4 °C, immunoblot; Fig. 7c
Experimental: For biotin mediated immunoprecipitation, plasmids of HA-NEK7 (WT, K130A, L132R, K140A and Tri-MUT) were transfected into HEK293T cells for 2 days. Then, cells were lysed in MLB with inhibitor cocktail for 10 min at 4 °C. Cell lysates were collected and centrifuged at 12,000 rpm for 15 min at 4 °C and the supernatant was incubated with biotin conjunction peptide overnight at 4 °C. On the next day, streptavidin magnetic beads(Invitrogen, Lot#91221939) were added and incubated for 1 h. The immunocoprecipitated protein was then subjected to washing, heating, and western blot analysis.
Mouse HA-NEK7, FlAG-A20, and NLRP3 cDNA were amplified by employing standard PCR techniques from a mouse cDNA library. Subsequently, diverse cDNAs were inserted into mammalian expression vectors pcDNA3.1(+), pRK5, or pCMV6 with 3×Flag or 3×HA tags. For transient transfections, Lipofectamine 3000 was utilized according to the manufacturer’s instructions.

CSCC[C@H](NC(=O)[C@H](Cc1ccc(O)cc1)NC(=O)[C@H](CCC(N)=O)NC(=O)[C@H](CS)NC(=O)[C@H](C)NC(=O)[C@H](C)NC(=O)[C@H](Cc1c[nH]cn1)NC(=O)[C@H](CCSC)NC(=O)[C@H](CC(C)C)NC(=O)[C@H](CS)NC(=O)[C@H](CC(N)=O)NC(=O)CNC(=O)[C@H](CC(=O)O)NC(=O)CNC(=O)[C@H](CC(N)=O)NC(=O)[C@@H](NC(=O)[C@H](CCCCN)NC(=O)[C@H](CC(C)C)NC(=O)[C@H](C)NC(=O)[C@@H](NC(=O)[C@H](CC(C)C)NC(=O)[C@@H](N)CCCCN)C(C)C)[C@@H](C)O)C(=O)N[C@@H](Cc1c[nH]c2ccccc12)C(=O)NCC(=O)N[C@H](C(=O)N[C@@H](CCC(N)=O)C(=O)N[C@@H](CC(=O)O)C(=O)N[C@H](C(=O)N[C@@H](CC(=O)O)C(=O)O)[C@@H](C)O)C(C)C [P-II] (H-KLVALKTNGDGNCLMHAACQYMWGVQDTD-OH; N-terminus and C-terminus assumed)
renal injury (in words) (AKI mice): alleviated the serum creatinine and renal injury
interference with NEK7-NLRP3 interaction (NEK7 and NLRP3 complex): interfere with the interaction between NEK7 and NLRP3 through Lys140 of NEK7; also recorded: interfering the binding of NEK7 to NLRP3 complex
binding of NEK7 and P-II, effect of simultaneous mutation of three residues [1]: significantly attenuate the binding of NEK7 and P-II
